The source of these data is patent US12661415B2, “Isoindolinone compounds and imaging agents for imaging Huntingtin protein” (CHDI Foundation, Inc., priority 2021, dated 2026).

Data set [1] has as its target T1, MBP-HTT(1-89)Q46-His(6×) (Exon1-Q46) protein aggregates (Homo sapiens, UniProt P42858, INS38QQQQQQQQQQQQQQQQQQQQQQQQQ).
T1 construct: MBP-HTT(1-89)Q46-His(6×); His(6×) (C); made in house
The data set is described as follows: Exon1-Q46 radioligand binding assay (RBA). The conditions noted are these: aggregated Exon1-Q46 1 μM; 0.3 nM ligand [3H3-methyl]-5-((5-methoxypyridin-2-yl)methoxy)-2-(pyrazin-2-yl)benzo[d]oxazole; 60 minutes at 37° C.; read-out: Potency Range (IC50). The procedure: Exon1-Q46 Radioligand Binding Assay
For radioligand binding assays (RBA) MBP-HTT(1-89)Q46-His(6×) (“Exon1-Q46”) protein was generated based on a previous publication (Scherzinger et al. Cell, Vol. 90, 549-558, Aug. 8, 1997). For experiments 30 μM MBP-Exon1-Q46 was incubated with 150 μg/mL thrombin in assay buffer (150 mM NaCl, 50 mM Tris pH 8.0) and 2 mM CaCl2 for 16 hours at 37° C. Aggregated Exon1-Q46 was pelleted by centrifugation for 5 minutes at 13,000 rpm in a bench top centrifuge and re-dissolved in the same volume of assay buffer. Test compounds were prepared by titration in DMSO at 11 concentrations from 63 μM to 2 nM. For the RBA, Exon1-Q46 protein aggregates and test compounds were pre-incubated in assay buffer for 20 minutes at room temperature, in 100 μL/well in a 96-well plate (pp, round bottom). Then, ligand was added in 50 μL/well and incubated for 60 minutes at 37° C. Final assay concentrations were 1 μM to 30 pM test compound, 1 μM Exon1-Q46 protein (equivalent monomer concentration) and 0.3 nM ligand [^3H3-methyl]-5-((5-methoxypyridin-2-yl)methoxy)-2-(pyrazin-2-yl)benzo[d]oxazole. Samples were transferred onto GF/B filter plates and washed 2× with 200 μL PBS using a Filtermate Harvester. After drying filter plates for 1 hour at 55° C., the back of the plates were sealed with foil and 30 μL/well scintillation fluid (Packard MicroScint 40) added, incubated for 15 minutes in the dark and counted in a MicroBeta reader. For analysis, replicate data from independent assay plates were normalized towards 0% and 100% inhibition using control wells of vehicle (0% inhibition) and 1 μM unlabelled [^3H3-methyl]-5-((5-methoxypyridin-2-yl)methoxy)-2-(pyrazin-2-yl)benzo[d]oxazole (100% inhibition). IC50 values were determined with a sigmoidal inhibition model with four variables (top, bottom, slope, IC50) in a global fit using the normalized replicate data.
The results for various example compounds were as provided in the table below (+++<100 nM; ++100−500 nM; +>500 nM; ND: not determined): […]

Data set [2] can be described thus: Unbound brain fraction (fu,brain) in mouse brain by equilibrium dialysis. As to conditions: 20% mouse brain homogenate, 5 μM, equilibrium dialysis 6 h at 37° C., average of triplicate. It is filed as in vitro ADME. The procedure: Compounds were tested for unbounded brain fraction (or free fraction in brain, fu,brain). It is an accepted standard in the CNS PET imaging field that compounds with low unbound fraction in brain (<5%) likely have high non-specific binding background that is undesirable for the detection of target binding. As a result, fu,brain is an important property in the design of PET ligands for brain imaging [see Zhang et al., Design and selection parameters to accelerate the discovery of novel central nervous system positron emission tomography (PET) ligands and their application in the development of a novel phosphodiesterase 2A PET ligand. J Med Chem 2013, 56 (11), 4568-79; Liu et al., Imaging Mutant Huntingtin Aggregates: Development of a Potential PET Ligand. J Med Chem 2020, 63 (15), 8608-8633].
Determining fu,brain in Mouse Brain by Equilibrium Dialysis. Dialysis membranes (12-14 kDa) (HTDialysis, Connecticut) were soaked in phosphate buffer (10 mM potassium phosphate and 0.8% sodium chloride buffer, pH 7.4 at 37° C.) for a minimum of 1 h, at this time ethanol was added (final concentration of 20% v/v) and membranes continued to soak for 30 min Mouse brain tissue was diluted in phosphate buffer in a […] (w/v) and homogenised using a Precellys 24 (Stretton Scientific, UK) to achieve a final concentration of 20% brain homogenate.
Test compounds prepared as DMSO stocks at 0.5 mM are diluted into brain homogenate to achieve 5 μM final substrate concentration (1% DMSO) and a t=0 sample was prepared by sampling 50 μL of into 400 μL of quench solution (Acetonitrile containing 0.1% formic acid and sulfisoxazole/tolbutamide/imipramine/labetalol 200 nM). Samples were matrix matched with the addition of 50 μL of assay buffer. The HTDialysis Teflon blocks (HTDialysis, Connecticut) were assembled with pre-soaked membrane between each receiver and donor well and clamped in the stainless steel pressure plate (HTDialysis, Connecticut). The lower compartment (acceptor side) was dosed with 120 μL of buffer and the upper compartment (donor side) was dosed with 120 μL of compound in homogenate. All test compounds and controls were completed in triplicate. The HT dialysis plate was sealed and incubated for 6 h at 37° C. shaking at 250 rpm.
Following the incubation, 50 μL of sample was removed from all donor and acceptor wells and transferred into a quench plate containing 400 μL of quench solution. All samples were matrix matched with 50 μL of the alternate blank matrix. Analytical samples were diluted 1:1 with water using the Janus Robot and analysed by LC-MS/MS.
Peak areas of donor and acceptor compartments were compared to determine percent unbound (% fu) and the average of triplicate measurements was reported. Reference T0 sample was used to calculate sample recovery (%). Control compounds were compared with historic and literature values to ensure assay functionality.
A general note: In equilibrium dialysis only unbound substance equilibrates across the membrane.

T1 sequence (P42858 with tags, fused parts or gaps with the stated changes): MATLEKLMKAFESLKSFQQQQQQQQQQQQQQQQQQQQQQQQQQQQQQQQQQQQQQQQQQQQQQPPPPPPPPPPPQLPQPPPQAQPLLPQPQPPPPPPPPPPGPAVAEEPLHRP

For `Cn1nc(N2Cc3cc(OCc4ccc(OCF)cn4)ccc3C2=O)ccc1=O` [Compound 2-2, 5-{[5-(Fluoromethoxy)pyridin-2-yl]methoxy}-2-(1-methyl-6-oxo-1,6-dihydropyridazin-3-yl)-2,3-dihydro-1H-isoindol-1-one], the IC50 in data set [1] was less than 100 nM. The “Mean Free Brain Fraction (%)” value in data set [2] is on record as 12.7%.

Turning to `Cn1nc(N2Cc3cc(OCc4cc(Cl)c(F)cn4)ccc3C2=O)ccc1=O` [Compound 2-3, 5-[(4-Chloro-5-fluoropyridin-2-yl)methoxy]-2-(1-methyl-6-oxo-1,6-dihydropyridazin-3-yl)-2,3-dihydro-1H-isoindol-1-one], the IC50 in data set [1] is less than 100 nM. The “Mean Free Brain Fraction (%)” value in data set [2] is 2.7%.

For `COc1cc(COc2ccc3c(c2)CN(c2ccc(=O)n(C)n2)C3=O)ncc1F` [Compound 3-1, 5-[(5-Fluoro-4-methoxypyridin-2-yl)methoxy]-2-(1-methyl-6-oxo-1,6-di-hydropyridazin-3-yl)-2,3-dihydro-1H-isoindol-1-one], in data set [1], the IC50 is less than 100 nM. The “Mean Free Brain Fraction (%)” value in data set [2] is given as 9.7%.

Consider `COc1ccc(COc2ccc3c(c2)CN(c2ccc(=O)[nH]n2)C3=O)nc1` [Compound 6-1, 5-[(5-Methoxypyridin-2-yl)methoxy]-2-(6-oxo-1,6-dihydropyridazin-3-yl)-2,3-dihydro-1H-isoindol-1-one], for which, in data set [1], the 50% inhibitory concentration (IC50) was less than 100 nM. In data set [2], the “Mean Free Brain Fraction (%)” value is 11.3%.

Consider `COc1ccc(COc2ccc3c(c2)CN(c2ccc(=O)n(CF)n2)C3=O)nc1` [Compound 8-1, 2-(1-(Fluoromethyl)-6-oxo-1,6-dihydropyridazin-3-yl)-5-((5-methoxypyridin-2-yl)methoxy)isoindolin-1-one], for which the IC50 in data set [1] is less than 100 nM. For the same compound, the “Mean Free Brain Fraction (%)” value in data set [2] was 7.4%.

For the compound `COc1ccc(COc2ccc3c(c2)CN(c2ccc(=O)n(CCF)n2)C3=O)nc1` [Compound 8-2, 2-[1-(2-Fluoroethyl)-6-oxo-1,6-dihydropyridazin-3-yl]-5-[(5-methoxypyridin-2-yl)methoxy]-2,3-dihydro-1H-isoindol-1-one], the IC50 in data set [1] is less than 100 nM. The “Mean Free Brain Fraction (%)” value in data set [2] came out at 9.0%.

As for `O=C1c2ccc(OCc3ccc(F)cn3)cc2CN1c1ccc(=O)[nH]n1` [Compound 9-1, 5-[(5-Fluoro-2-pyridyl)methoxy]-2-(6-oxo-1H-pyridazin-3-yl)isoindolin-1-one], in data set [1], the IC50 is less than 100 nM. For the same compound, the “Mean Free Brain Fraction (%)” value in data set [2] came out at 6.7%.

For the compound `COc1cc(COc2ccc3c(c2)CN(c2ccc(=O)[nH]n2)C3=O)ncc1F` [Compound 9-3, 5-((5-Fluoro-4-methoxypyridin-2-yl)methoxy)-2-(6-oxo-1,6-dihydropyridazin-3-yl)isoindolin-1-one], the IC50 in data set [1] was less than 100 nM. Moreover, the “Mean Free Brain Fraction (%)” value in data set [2] amounted to 5.2%.

Consider `COc1ccc(COc2cc(F)c3c(c2)CN(c2ccc(=O)n(C)n2)C3=O)nc1` [Compound 10-1, 7-Fluoro-5-[(5-methoxypyridin-2-yl)methoxy]-2-(1-methyl-6-oxo-1,6-di-hydropyridazin-3-yl)-2,3-dihydro-1H-isoindol-1-one], for which the IC50 in data set [1] was less than 100 nM. Besides, the “Mean Free Brain Fraction (%)” value in data set [2] stood at 14.3%.

Consider `COc1ccc(COc2cc(F)c3c(c2)CN(c2ccc(=O)[nH]n2)C3=O)nc1` [Compound 10-2, 7-Fluoro-5-[(5-methoxypyridin-2-yl)methoxy]-2-(6-oxo-1,6-dihydropyridazin-3-yl)-2,3-dihydro-1H-isoindol-1-one], for which the IC50 in data set [1] is less than 100 nM. In data set [2], the “Mean Free Brain Fraction (%)” value came out at 9.5%.

With `COc1ccc2c(c1)CN(c1ccc(OCc3cccnc3)nc1)C2=O` [Compound 11-1, 5-Methoxy-2-{6-[(pyridin-3-yl)methoxy]pyridin-3-yl}-2,3-dihydro-1H-isoindol-1-one], the IC50 in data set [1] was less than 100 nM. In data set [2], the “Mean Free Brain Fraction (%)” value is recorded as 3.2%.

Regarding `COc1ccc(COc2cc3c(cc2F)C(=O)N(c2ccc(=O)n(C)n2)C3)nc1` [Compound 12-1, 6-Fluoro-5-[(5-methoxypyridin-2-yl)methoxy]-2-(1-methyl-6-oxo-1,6-dihydropyridazin-3-yl)-2,3-dihydro-1H-isoindol-1-one], the IC50 in data set [1] is less than 100 nM. For the same compound, the “Mean Free Brain Fraction (%)” value in data set [2] is 7.1%.

For the compound `COc1ccc(COc2ccc3c(c2F)CN(c2ccc(=O)n(C)n2)C3=O)nc1` [Compound 12-2, 4-Fluoro-5-[(5-methoxypyridin-2-yl)methoxy]-2-(1-methyl-6-oxo-1,6-dihydropyridazin-3-yl)-2,3-dihydro-1H-isoindol-1-one], the IC50 in data set [1] was less than 100 nM. Besides, the “Mean Free Brain Fraction (%)” value in data set [2] came out at 5.3%.

Regarding `COc1ccc(COc2cc(F)c3c(c2)C(=O)N(c2ccc(=O)n(C)n2)C3)nc1` [Compound 12-3, 4-Fluoro-6-[(5-methoxypyridin-2-yl)methoxy]-2-(1-methyl-6-oxo-1,6-dihydropyridazin-3-yl)-2,3-dihydro-1H-isoindol-1-one], in data set [1], the IC50 was less than 100 nM. The “Mean Free Brain Fraction (%)” value in data set [2] is given as 5.4%.

For the compound `COc1ccc(COc2cc3c(cc2F)CN(c2ccc(=O)n(C)n2)C3=O)nc1` [Compound 12-4, 5-Fluoro-6-[(5-methoxypyridin-2-yl)methoxy]-2-(1-methyl-6-oxo-1,6-dihydropyridazin-3-yl)-2,3-dihydro-1H-isoindol-1-one], the IC50 in data set [1] was less than 100 nM. For the same compound, the “Mean Free Brain Fraction (%)” value in data set [2] stood at 9.8%.

For `COc1ccc(COc2cnc3c(c2)CN(c2ccc(=O)n(C)n2)C3=O)nc1` [Compound 12-5, 6-{3-[(5-Methoxypyridin-2-yl)methoxy]-7-oxo-5H,6H,7H-pyrrolo[3,4-b]pyridin-6-yl}-2-methyl-2,3-dihydropyridazin-3-one], the IC50 in data set [1] is less than 100 nM. Besides, the “Mean Free Brain Fraction (%)” value in data set [2] is on record as 37.0%.

For the compound `Cn1nc(N2Cc3cc(OCc4ccc(OCCF)cn4)cnc3C2=O)ccc1=O` [Compound 12-6, 6-(3-{[5-(2-Fluoroethoxy)pyridin-2-yl]methoxy}-7-oxo-5H,6H,7H-pyrrolo[3,4-b]pyridin-6-yl)-2-methyl-2,3-dihydropyridazin-3-one], the IC50 in data set [1] is less than 100 nM. Further, in data set [2], the “Mean Free Brain Fraction (%)” value is recorded as 50.0%.

For the compound `Cn1nc(N2Cc3cc(OCc4ccc(F)cn4)cnc3C2=O)ccc1=O` [Compound 12-7, 6-{3-[(5-Fluoropyridin-2-yl)methoxy]-7-oxo-5H,6H,7H-pyrrolo[3,4-b]pyridin-6-yl}-2-methyl-2,3-dihydropyridazin-3-one], the IC50 in data set [1] is less than 100 nM. Also, the “Mean Free Brain Fraction (%)” value in data set [2] worked out at 67.8%.

In general, IC50 refers to the midpoint of a concentration-inhibition curve.
